Reference: US11773099B2, “Compounds and their methods of use” (Praxis Precision Medicines, Inc., priority 2019, dated 2023)

Target: T1, human Nav1.6 (hNav1.6) (Homo sapiens, UniProt Q9UQD0)
T1 construct: expressed in transfected cells; host or cells: HEK-293 (G418 selection)
Assay: Modulation of late sodium current (INaL), PatchXpress electrophysiology
Format: cell-based
Details: HEK293; compound at 1 μM; HEK-293 cells expressing recombinant hNav1.6; late current evoked by 300 nM ATX-II; read-out: INaL v1.6 (1 μM, % Inhibition)
Method: Functional characterization of exemplary compounds to modulate INaL expressed by the Nav1.6 voltage-gated sodium channel was accomplished using the PatchXpress™ high throughput electrophysiology platform (Molecular Devices, Sunnyvale, Calif.). HEK-293 cells expressing recombinant, human Nav1.6 (hNav1.6) were grown in DMEM/high-glucose Dulbecco's modified, 10% FBS, 2 mM sodium pyruvate, 10 mM HEPES and 400 μg/mL G418. Cells were grown to 50%-80% confluency prior to harvesting. Trypsinized cells were washed, allowed to recover for 1 hour and then resuspended in extracellular recording solution at a concentration of 1×10^6 cells/ml. The onboard liquid handling facility of the PatchXpress was used for dispensing cells and applying test compounds. Nav late currents were evoked by the application of 300 nM ATX-II. INaL was evoked by depolarizing pulses to 0 mV for 200 ms from a non-inactivating holding potential (e.g., −120 mV) at a frequency of 0.1 Hz. INaL amplitude and stability were determined by analyzing the mean current amplitude over the final 20 ms of the test pulse. Following steady state block with exemplary compounds (e.g., as described herein), a Na^+ free solution containing an impermeant cation (e.g., Choline or NDMG) was added to confirm the identify of the sodium current. Percent steady-state inhibition of INaL was calculated as: [(INaL_compound)/(INaL_control)]*100, where INaL_compound and INaL_control represent INaL recorded in the presence or absence of compound, respectively.
Results from this assay relating to percent inhibition of INaL at hNav1.6 (measured using procedure similar to described above but using HEK-293 cells expressing recombinant, human Nav1.6 (hNav1.6) at 1 μM are summarized in Table 1 below. In this table, “A” indicates inhibition of less than 30%; “B” indicates inhibition of between about 30% to about 70%; and “C” indicates inhibition of greater than 70%.

T1 sequence (Q9UQD0 whole entry): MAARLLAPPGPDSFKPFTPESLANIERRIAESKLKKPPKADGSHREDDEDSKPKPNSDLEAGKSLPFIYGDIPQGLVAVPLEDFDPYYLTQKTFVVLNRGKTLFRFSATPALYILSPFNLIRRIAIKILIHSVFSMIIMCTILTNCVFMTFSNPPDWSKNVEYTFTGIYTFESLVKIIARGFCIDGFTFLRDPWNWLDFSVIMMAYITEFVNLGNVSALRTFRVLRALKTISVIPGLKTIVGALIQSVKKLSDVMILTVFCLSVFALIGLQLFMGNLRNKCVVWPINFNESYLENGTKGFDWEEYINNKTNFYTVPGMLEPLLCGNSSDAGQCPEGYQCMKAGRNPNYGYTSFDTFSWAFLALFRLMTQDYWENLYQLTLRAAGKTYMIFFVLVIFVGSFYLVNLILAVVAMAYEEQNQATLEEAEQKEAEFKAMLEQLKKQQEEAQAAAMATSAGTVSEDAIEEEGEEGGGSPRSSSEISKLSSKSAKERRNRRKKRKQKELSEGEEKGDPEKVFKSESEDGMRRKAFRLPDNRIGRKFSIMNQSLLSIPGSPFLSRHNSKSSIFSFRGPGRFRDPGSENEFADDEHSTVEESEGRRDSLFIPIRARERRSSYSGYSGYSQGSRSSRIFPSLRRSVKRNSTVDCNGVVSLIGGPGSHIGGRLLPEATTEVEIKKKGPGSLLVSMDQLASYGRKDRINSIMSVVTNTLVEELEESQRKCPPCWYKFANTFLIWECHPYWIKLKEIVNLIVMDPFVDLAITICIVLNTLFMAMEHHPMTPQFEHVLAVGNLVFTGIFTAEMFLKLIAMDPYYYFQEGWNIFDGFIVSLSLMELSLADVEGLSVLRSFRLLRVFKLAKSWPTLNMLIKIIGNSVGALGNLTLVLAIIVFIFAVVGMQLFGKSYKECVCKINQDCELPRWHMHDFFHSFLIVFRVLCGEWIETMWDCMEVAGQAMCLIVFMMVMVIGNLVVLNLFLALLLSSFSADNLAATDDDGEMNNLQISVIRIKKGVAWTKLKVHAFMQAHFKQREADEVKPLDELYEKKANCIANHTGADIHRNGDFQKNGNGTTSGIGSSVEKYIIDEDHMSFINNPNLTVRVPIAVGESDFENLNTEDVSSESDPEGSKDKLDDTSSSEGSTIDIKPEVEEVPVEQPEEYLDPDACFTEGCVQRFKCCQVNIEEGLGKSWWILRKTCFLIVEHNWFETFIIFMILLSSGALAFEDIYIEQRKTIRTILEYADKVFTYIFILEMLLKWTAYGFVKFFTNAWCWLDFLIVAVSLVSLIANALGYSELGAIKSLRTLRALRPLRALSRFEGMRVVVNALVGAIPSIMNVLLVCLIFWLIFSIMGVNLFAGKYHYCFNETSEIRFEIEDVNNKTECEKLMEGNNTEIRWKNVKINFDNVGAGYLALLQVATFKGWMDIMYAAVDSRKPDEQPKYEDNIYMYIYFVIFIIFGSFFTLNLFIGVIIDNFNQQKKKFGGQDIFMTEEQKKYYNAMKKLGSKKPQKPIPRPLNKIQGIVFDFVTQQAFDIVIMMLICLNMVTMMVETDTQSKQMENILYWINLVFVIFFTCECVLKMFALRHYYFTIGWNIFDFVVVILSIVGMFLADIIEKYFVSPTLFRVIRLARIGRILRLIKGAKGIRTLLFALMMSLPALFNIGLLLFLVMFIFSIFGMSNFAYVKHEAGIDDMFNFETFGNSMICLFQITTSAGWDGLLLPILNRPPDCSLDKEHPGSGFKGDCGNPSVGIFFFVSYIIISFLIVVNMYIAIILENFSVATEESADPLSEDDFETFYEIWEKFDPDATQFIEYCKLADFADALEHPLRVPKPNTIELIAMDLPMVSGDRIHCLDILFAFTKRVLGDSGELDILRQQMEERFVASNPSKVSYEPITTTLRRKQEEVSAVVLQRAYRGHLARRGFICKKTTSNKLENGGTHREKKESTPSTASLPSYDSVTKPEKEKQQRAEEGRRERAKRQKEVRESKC

inhibition at 1 µM | SMILES
< 30% | Cc1cc(OC(F)(F)F)ccc1-c1cc2cncn2cn1 [Compound 9, 7-[2-methyl-4-(trifluoromethoxy)phenyl]imidazo[1,5-c]pyrimidine]
> 70% | Cc1cc(OC(F)(F)F)ccc1-c1cc2c(C(F)(F)F)ncn2cn1 [Compound 14]
< 30% | FC(F)(F)Oc1ccc(-c2ccn3cnc(C(F)(F)F)c3c2)cc1 [Compound 2]
< 30% | FC(F)(F)Oc1ccc(-c2ccn3cncc3c2)cc1 [Compound 1]
< 30% | Cc1cc(OC(F)(F)F)ccc1-c1cnn2cncc2c1 [Compound 5, 3-[2-methyl-4-(trifluoromethoxy)phenyl]imidazo[1,5-b]pyridazine]
< 30% | Cc1cc(OC(F)(F)F)ccc1-c1cc2c(C(F)F)ncn2cn1 [Compound 23]
< 30% | C[C@@H](Oc1ncc(-c2cc3cncn3cn2)cc1F)C(F)(F)F [Compound 12, 7-[5-fluoro-6-[(1R)-2,2,2-trifluoro-1-methyl-ethoxy]-3-pyridyl]imidazo[1,5-c]pyrimidine]
30 to 70% | CC(C)(Oc1ncc(-c2cc3c(C(F)(F)F)ncn3cn2)cc1F)C(F)(F)F [Compound 17]
30 to 70% | COCc1ncn2cnc(-c3ccc(OC(F)(F)F)cc3)cc12 [Compound 26]
< 30% | COCc1ncn2cnc(-c3cnc(O[C@@H](C)C(F)(F)F)c(F)c3)cc12 [Compound 24]
30 to 70% | C[C@@H](Oc1ncc(-c2cc3c(C(F)(F)F)ncn3cn2)cc1F)C(F)(F)F [Compound 15]
< 30% | FC(F)(F)Oc1ccc(-c2cc3cncn3cn2)cc1 [Compound 7, 7-[4-(trifluoromethoxy)phenyl]imidazo[1,5-c]pyrimidine]
30 to 70% | FC(F)(F)Oc1ccc(-c2ccn3cnc(C(F)(F)F)c3n2)cc1 [Compound 4]
30 to 70% | CC(C)(Oc1ncc(-c2cc3c(C(F)F)ncn3cn2)cc1F)C(F)(F)F [Compound 21]
< 30% | Fc1cc(-c2cc3c(C(F)(F)F)ncn3cn2)cnc1OCC(F)(F)F [Compound 16]
< 30% | Fc1cc(-c2cc3c(C(F)F)ncn3cn2)cnc1OCC(F)(F)F [Compound 22]
30 to 70% | C[C@H](Oc1ncc(-c2cc3c(C(F)(F)F)ncn3cn2)cc1F)C(F)(F)F [Compound 18]
30 to 70% | C[C@H](Oc1ncc(-c2cc3cncn3cn2)cc1F)C(F)(F)F [Compound 11, 7-[5-fluoro-6-[(1S)-2,2,2-trifluoro-1-methyl-ethoxy]-3-pyridyl]imidazo[1,5-c]pyrimidine]
< 30% | C[C@H](Oc1ncc(-c2cc3c(C(F)F)ncn3cn2)cc1F)C(F)(F)F [Compound 20]
> 70% | FC(F)(F)Oc1ccc(-c2cc3c(C(F)(F)F)ncn3cn2)cc1 [Compound 8]
< 30% | C[C@@H](Oc1ncc(-c2cc3c(C(F)F)ncn3cn2)cc1F)C(F)(F)F [Compound 19]
30 to 70% | CC(C)(Oc1ncc(-c2cc3cncn3cn2)cc1F)C(F)(F)F [Compound 13, 7-[5-fluoro-6-(2,2,2-trifluoro-1,1-dimethyl-ethoxy)-3-pyridyl]imidazo[1,5-c]pyrimidine]
> 70% | COCc1ncn2cnc(-c3cnc(O[C@H](C)C(F)(F)F)c(F)c3)cc12 [Compound 25]
< 30% | COCc1ncn2cnc(-c3cnc(OC(C)(C)C(F)(F)F)c(F)c3)cc12 [Compound 27]
< 30% | Cc1cc(OC(F)(F)F)ccc1-c1cnn2cnc(C(F)(F)F)c2c1 [Compound 6]
< 30% | Fc1cc(-c2cc3cncn3cn2)cnc1OCC(F)(F)F [Compound 10, 7-[5-fluoro-6-(2,2,2-trifluoroethoxy)-3-pyridyl]imidazo[1,5-c]pyrimidine]
